Test results as given in patent US20260240863A1, “COMBINATION OF ROGINOLISIB AND HDAC INHIBITOR IN THE TREATMENT OF HAEMATOLOGICAL MALIGNANCY” (IONCTURA SA, priority 2023, published 2026).

Legend:
[1] = system: JVM2 (MCL) cell line; assay: MTT antiproliferation combination assay, Chou-Talalay Combination Index, JVM2; type: cell-based; conditions: HDAC inhibitor in combination with Compound 1, 72 hours
Experimental: (§1) Cell lines from different haematological malignancies were exposed to increasing doses of Compound 1, to increasing doses of HDAC inhibitor, and to increasing doses of the combination of Compound 1 and HDAC inhibitor. Compound 1 and Vorinostat were used at a maximum concentration of 10 μM, following an eight fold dose response design based on 1:3 compound dilutions plus an untreated control. Belinostat was used at a maximum concentration of 10 μM, following an eight fold dose response design based on 1:4 compound dilutions plus an untreated control.
(§2) Cells were incubated for 72 hours at 37° C. and 5% CO2. The antiproliferative effect of single and combination treatments were determined by adding 20 μL MTT [3-(4,5-dimethylthiazolyl-2)-2,5-diphenyltetrazoliumbromide] reagent (Sigma Aldrich, Buchs, Switzerland) to each well and the plates were incubated at 37° C. for 4 hours, followed by adding 50 μL of sodium dodecyl sulfate (SDS) (250 µM SDS, 0.21% fuming HCl) lysis buffer. The lysed cells were kept overnight, and then the absorbance was read at 570 nm using the Cytation 3 instrument (BioTek, Winoosku, VT, USA). The effect of the combinations was determined according to the Chou-Talalay Combination Index (CI) (Chou 2008, Chou 2010) and calculated with the Synergy R package (Lee 2007). […]

[2] = system: A20 (murine B-cell lymphoma) cell line; assay: MTT antiproliferation combination assay, Chou-Talalay Combination Index, A20; type: cell-based; conditions: HDAC inhibitor in combination with Compound 1, 72 hours
Experimental: as §1, §2

[3] = system: Farage (DLBCL) cell line; assay: MTT antiproliferation combination assay, Chou-Talalay Combination Index, Farage; type: cell-based; conditions: HDAC inhibitor in combination with Compound 1, 72 hours
Experimental: as §1, §2

[4] = system: MEC1 (CLL) cell line; assay: MTT antiproliferation combination assay, Chou-Talalay Combination Index, MEC1; type: cell-based; conditions: HDAC inhibitor in combination with Compound 1, 72 hours
Experimental: as §1, §2

[5] = system: TMD8 (DLBCL) cell line; assay: MTT antiproliferation combination assay, Chou-Talalay Combination Index, TMD8; type: cell-based; conditions: HDAC inhibitor in combination with Compound 1, 72 hours
Experimental: as §1, §2

[6] = system: DNMT; conditions: more than that of azacytidine; cited from earlier work
[7] = clinical use of Vorinostat; cited from earlier work

Row | Structure (SMILES) | Cl value (median) [1] | Cl value (median) [2] | Cl value (median) [3] | Cl value (median) [4] | Cl value (median) [5] | inhibitory activity of DNMT relative to azacytidine [6] [times] | pulmonary embolism (thromboembolic, most common life-threatening event) [7] [%]
1 | O=C(/C=C/c1cccc(S(=O)(=O)Nc2ccccc2)c1)NO [Belinostat, (2E)-N-Hydroxy-3-[3-(phenylsulfamoyl)phenyl]prop-2-enamide] | 0.62 | 0.87 | 0.51 | 0.45 | 0.87 | – | –
2 | Nc1ncn([C@H]2C[C@H](O)[C@@H](CO)O2)c(=O)n1 [Decitabine, 5-aza-2′-deoxycytidine] | – | – | – | – | – | 30 | –
3 | O=C(CCCCCCC(=O)Nc1ccccc1)NO [Vorinostat, N-Hydroxy-N′-phenyloctanediamide] | 0.71 | – | 0.69 | 0.83 | – | – | 4
